Measurements from US20180037595A1, “BENZOXABOROLE COMPOUNDS AND USES THEREOF” (GLAXOSMITHKLINE INTELLECTUAL PROPERTY (NO.2) LIMITED, priority 2015, published 2018).

System: M. tuberculosis clinical isolates
Experiment: MIC against clinical strains (BACTEC MGIT 960 System)
Assay type: cell-based
Details: Mycobacterium tuberculosis

Compound | MIC (strain 330, resistant clinical isolate, resistance HSR (Tables 2B, 2D)) [µM] | MIC (against 85 of the 96 clinical isolate strains tested (sensitive and resistant)) [µM]
Cl.NC[C@H]1OB2OCCOc3ccc(Cl)c1c32 [Example 4, (S)-(3-chloro-7,8-dihydro-2H-1,6,9-trioxa-9a-borabenzo[cd]azulen-2-yl)methanamine hydrochloride] | 0.08 | 
NC[C@H]1OB2OCCOc3ccc(Cl)c1c32 [Example G4-CI] |  | < 0.1
